Data: the kinase profiling compilation of Christmann-Franck et al. (2016)
Where “and” joins values, the source holds several entries; their conditions need not be identical. Identical values can stand only once.

Legend:
Assay in all cases: radiometric filter-binding kinase assay, Kinase HotSpot
Settings in all cases: compound 0.5 µM; ATP 10 µM
CDK4 CCND1 (human) = CDK4 CCND1 (human) (UniProt P24385+P11802)
MARK3 (human) = MARK3 (human) (UniProt P27448)
NEK3 (human) = NEK3 (human) (UniProt P51956)
CSNK2A1 (human) = CSNK2A1 (human) (UniProt P68400)
NEK6 (human) = NEK6 (human) (UniProt Q9HC98)
MARK4 (human) = MARK4 (human) (UniProt Q96L34)
LRRK2 (human) = LRRK2 (human) (UniProt Q5S007)
ADRBK1 (human) = ADRBK1 (human) (UniProt P25098)
MAP3K2 (human) = MAP3K2 (human) (UniProt Q9Y2U5)
SIK2 (human) = SIK2 (human) (UniProt Q9H0K1)
BTK (human) = BTK (human) (UniProt Q06187)
[1] = test system: MAP2K6 (human), P52564 [S207E/T211E]
RPS6KB2 (human) = RPS6KB2 (human) (UniProt Q9UBS0)
PRKCH (human) = PRKCH (human) (UniProt P24723)
HIPK1 (human) = HIPK1 (human) (UniProt Q86Z02)
WNK2 (human) = WNK2 (human) (UniProt Q9Y3S1)
MAP4K4 (human) = MAP4K4 (human) (UniProt O95819)
ULK2 (human) = ULK2 (human) (UniProt Q8IYT8)
STK25 (human) = STK25 (human) (UniProt O00506)
MINK1 (human) = MINK1 (human) (UniProt Q8N4C8)
STK17A (human) = STK17A (human) (UniProt Q9UEE5)
DYRK1A (human) = DYRK1A (human) (UniProt Q13627)
PRKACA (human) = PRKACA (human) (UniProt P17612)
NEK7 (human) = NEK7 (human) (UniProt Q8TDX7)
TAOK2 (human) = TAOK2 (human) (UniProt Q9UL54)
LYN (human) = LYN (human) (UniProt P07948)
MAPK8 (human) = MAPK8 (human) (UniProt P45983)
SRPK2 (human) = SRPK2 (human) (UniProt P78362)
SRMS (human) = SRMS (human) (UniProt Q9H3Y6)
NTRK2 (human) = NTRK2 (human) (UniProt Q16620)
PRKCB1 (human) = PRKCB1 (human) (UniProt P05771)
ACVR1 (human) = ACVR1 (human) (UniProt Q04771)
IRAK4 (human) = IRAK4 (human) (UniProt Q9NWZ3)
GSK3A (human) = GSK3A (human) (UniProt P49840)
STK24 (human) = STK24 (human) (UniProt Q9Y6E0)
ROS1 (human) = ROS1 (human) (UniProt P08922)
[2] = test system: MKNK1 (human), Q9BUB5 [T385D; 165-205 del]
FGR (human) = FGR (human) (UniProt P09769)
MAP4K2 (human) = MAP4K2 (human) (UniProt Q12851)
DAPK2 (human) = DAPK2 (human) (UniProt Q9UIK4)
CHEK1 (human) = CHEK1 (human) (UniProt O14757)
CSNK1G2 (human) = CSNK1G2 (human) (UniProt P78368)

LYN (human), sequence (P07948 whole entry, looked up): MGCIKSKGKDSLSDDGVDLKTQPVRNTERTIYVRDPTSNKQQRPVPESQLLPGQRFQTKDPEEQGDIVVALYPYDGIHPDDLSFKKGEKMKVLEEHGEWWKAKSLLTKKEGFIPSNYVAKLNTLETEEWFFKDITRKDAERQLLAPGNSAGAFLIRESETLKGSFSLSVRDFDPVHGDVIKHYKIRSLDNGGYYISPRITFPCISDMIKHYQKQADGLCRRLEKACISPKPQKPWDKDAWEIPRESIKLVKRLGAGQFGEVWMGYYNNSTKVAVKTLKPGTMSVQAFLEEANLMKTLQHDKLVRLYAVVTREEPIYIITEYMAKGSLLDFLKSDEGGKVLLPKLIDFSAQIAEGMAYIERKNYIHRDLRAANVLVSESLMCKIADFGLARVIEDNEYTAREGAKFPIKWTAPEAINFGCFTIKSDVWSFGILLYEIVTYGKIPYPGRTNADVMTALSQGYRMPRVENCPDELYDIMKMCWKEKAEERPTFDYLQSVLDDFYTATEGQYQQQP
MAP3K2 (human), sequence (Q9Y2U5 whole entry, looked up): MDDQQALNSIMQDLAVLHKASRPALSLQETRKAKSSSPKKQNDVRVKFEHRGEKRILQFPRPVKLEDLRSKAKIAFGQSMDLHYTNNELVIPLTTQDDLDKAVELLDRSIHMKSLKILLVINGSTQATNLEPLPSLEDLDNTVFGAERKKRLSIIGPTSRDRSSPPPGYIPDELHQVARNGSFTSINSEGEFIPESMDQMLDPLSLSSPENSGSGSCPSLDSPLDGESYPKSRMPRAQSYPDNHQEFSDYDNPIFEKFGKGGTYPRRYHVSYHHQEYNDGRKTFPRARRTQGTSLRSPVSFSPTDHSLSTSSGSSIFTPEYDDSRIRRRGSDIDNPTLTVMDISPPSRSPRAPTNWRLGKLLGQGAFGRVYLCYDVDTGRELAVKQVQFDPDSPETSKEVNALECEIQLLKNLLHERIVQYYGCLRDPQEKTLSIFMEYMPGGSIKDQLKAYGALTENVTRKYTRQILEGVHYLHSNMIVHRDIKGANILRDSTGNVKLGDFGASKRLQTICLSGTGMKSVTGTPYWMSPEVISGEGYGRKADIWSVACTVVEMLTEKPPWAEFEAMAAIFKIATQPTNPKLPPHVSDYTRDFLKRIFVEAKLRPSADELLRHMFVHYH
MARK3 (human), sequence (P27448 whole entry, looked up): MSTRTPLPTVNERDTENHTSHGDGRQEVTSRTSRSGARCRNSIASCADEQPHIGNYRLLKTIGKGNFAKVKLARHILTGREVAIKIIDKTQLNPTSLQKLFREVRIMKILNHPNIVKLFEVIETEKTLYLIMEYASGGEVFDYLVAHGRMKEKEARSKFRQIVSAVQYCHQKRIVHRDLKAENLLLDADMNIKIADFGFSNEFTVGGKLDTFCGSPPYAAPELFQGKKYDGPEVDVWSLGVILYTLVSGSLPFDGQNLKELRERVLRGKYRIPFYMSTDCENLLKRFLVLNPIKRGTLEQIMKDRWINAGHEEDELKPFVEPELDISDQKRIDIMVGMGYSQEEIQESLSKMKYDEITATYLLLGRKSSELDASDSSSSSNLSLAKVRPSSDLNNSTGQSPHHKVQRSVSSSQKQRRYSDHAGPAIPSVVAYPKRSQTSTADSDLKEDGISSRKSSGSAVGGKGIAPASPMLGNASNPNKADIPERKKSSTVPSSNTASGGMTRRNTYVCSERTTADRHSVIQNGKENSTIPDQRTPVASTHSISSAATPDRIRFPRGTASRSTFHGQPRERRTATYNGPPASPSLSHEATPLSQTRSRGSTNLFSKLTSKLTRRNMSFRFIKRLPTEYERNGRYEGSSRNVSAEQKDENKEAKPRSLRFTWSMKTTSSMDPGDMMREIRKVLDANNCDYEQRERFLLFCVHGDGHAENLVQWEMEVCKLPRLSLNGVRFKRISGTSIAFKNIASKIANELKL
MAP4K2 (human), sequence (Q12851 whole entry, looked up): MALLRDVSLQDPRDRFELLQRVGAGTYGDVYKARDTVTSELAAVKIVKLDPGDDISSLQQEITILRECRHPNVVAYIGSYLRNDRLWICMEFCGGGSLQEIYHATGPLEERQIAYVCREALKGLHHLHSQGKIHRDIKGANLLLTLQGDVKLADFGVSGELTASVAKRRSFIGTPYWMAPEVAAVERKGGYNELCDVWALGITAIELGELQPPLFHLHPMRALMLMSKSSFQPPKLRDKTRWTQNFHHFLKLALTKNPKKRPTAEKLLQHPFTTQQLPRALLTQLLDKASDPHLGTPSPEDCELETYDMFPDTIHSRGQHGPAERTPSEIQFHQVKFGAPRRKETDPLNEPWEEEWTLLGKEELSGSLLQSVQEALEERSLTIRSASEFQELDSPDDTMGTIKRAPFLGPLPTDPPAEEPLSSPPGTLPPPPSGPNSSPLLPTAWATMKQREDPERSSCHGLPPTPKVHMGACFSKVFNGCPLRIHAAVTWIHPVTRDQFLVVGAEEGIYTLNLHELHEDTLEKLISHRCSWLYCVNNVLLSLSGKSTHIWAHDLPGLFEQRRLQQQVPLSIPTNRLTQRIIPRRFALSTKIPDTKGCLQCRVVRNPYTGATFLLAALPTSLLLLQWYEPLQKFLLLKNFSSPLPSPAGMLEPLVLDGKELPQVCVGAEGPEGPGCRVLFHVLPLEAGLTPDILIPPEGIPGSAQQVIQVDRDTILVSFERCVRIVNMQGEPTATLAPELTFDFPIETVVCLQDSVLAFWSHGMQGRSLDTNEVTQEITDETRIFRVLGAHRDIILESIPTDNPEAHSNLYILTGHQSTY
MAP4K4 (human), sequence (O95819 whole entry, looked up): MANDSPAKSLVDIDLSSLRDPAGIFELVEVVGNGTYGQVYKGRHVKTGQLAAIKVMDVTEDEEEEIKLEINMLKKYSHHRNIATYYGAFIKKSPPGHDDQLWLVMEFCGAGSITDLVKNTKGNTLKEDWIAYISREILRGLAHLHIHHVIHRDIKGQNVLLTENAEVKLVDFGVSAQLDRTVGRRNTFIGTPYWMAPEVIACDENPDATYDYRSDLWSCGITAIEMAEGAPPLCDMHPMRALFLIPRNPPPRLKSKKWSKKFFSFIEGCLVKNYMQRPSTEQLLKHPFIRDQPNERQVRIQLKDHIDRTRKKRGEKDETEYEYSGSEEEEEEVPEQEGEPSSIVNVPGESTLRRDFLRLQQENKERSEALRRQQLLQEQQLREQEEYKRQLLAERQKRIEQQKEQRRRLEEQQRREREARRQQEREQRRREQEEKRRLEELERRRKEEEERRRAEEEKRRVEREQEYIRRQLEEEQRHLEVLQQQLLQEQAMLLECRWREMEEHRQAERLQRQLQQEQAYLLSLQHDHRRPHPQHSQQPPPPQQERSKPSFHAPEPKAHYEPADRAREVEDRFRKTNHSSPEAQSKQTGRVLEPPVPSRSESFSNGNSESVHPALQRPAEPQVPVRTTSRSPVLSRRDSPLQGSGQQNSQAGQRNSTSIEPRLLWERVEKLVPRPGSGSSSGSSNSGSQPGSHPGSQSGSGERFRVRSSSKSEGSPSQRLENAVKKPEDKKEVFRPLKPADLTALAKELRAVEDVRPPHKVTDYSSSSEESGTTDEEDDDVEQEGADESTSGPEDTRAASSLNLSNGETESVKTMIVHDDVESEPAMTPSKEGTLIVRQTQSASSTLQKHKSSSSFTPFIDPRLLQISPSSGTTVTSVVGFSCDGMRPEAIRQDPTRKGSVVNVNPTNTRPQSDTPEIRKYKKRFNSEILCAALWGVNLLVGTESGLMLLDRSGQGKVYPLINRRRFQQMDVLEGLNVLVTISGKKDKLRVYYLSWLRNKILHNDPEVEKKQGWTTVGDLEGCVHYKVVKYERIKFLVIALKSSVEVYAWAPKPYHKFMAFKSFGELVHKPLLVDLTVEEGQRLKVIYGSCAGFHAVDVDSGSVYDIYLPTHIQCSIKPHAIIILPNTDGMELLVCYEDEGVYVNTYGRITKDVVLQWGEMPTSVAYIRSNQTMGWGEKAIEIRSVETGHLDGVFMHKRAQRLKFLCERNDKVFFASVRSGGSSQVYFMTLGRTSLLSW
CSNK2A1 (human), sequence (P68400 whole entry, looked up): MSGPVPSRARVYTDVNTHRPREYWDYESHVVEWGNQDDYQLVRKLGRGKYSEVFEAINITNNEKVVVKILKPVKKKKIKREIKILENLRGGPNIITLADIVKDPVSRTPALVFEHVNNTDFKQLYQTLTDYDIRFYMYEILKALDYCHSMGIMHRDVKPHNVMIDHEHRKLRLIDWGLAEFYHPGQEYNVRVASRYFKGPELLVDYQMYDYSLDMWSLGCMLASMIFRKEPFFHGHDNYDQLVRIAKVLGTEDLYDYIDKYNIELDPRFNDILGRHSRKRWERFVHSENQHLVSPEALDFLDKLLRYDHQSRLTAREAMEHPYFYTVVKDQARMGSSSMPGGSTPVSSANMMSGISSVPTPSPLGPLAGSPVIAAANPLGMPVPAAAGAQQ
MAPK8 (human), sequence (P45983 whole entry, looked up): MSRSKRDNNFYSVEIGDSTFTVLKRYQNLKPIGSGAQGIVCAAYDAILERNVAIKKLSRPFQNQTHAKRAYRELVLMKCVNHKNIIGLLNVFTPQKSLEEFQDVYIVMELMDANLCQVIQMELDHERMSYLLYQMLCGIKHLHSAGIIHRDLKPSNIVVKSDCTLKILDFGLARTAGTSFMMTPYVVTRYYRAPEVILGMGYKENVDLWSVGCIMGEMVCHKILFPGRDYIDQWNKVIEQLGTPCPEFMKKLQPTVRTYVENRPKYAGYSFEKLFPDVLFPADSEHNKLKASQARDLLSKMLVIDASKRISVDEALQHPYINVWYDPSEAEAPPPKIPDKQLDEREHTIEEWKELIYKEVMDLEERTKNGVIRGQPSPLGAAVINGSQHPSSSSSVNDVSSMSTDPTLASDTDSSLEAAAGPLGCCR

SMILES: CCCCc1c(-c2ccc(OC)cc2)[nH]c2nccnc12
- residual activity (CDK4 CCND1 (human)): 60.4%
- residual activity (MARK3 (human)): 91.2%
- residual activity (NEK3 (human)): 99.1%
- residual activity (CSNK2A1 (human)): 97.8%
- residual activity (NEK6 (human)): 111%
- residual activity (MARK4 (human)): 88.3%
- residual activity (LRRK2 (human)): 83%
- residual activity (ADRBK1 (human)): 78.5%
- residual activity (MAP3K2 (human)): 90.9%
- residual activity (SIK2 (human)): 98.4%
- residual activity (BTK (human)): 64.7%
- residual activity [1]: 96%
- residual activity (RPS6KB2 (human)): 99.7%
- residual activity (PRKCH (human)): 103%
- residual activity (HIPK1 (human)): 109%
- residual activity (WNK2 (human)): 112%
- residual activity (MAP4K4 (human)): 66.5%
- residual activity (ULK2 (human)): 108%
- residual activity (STK25 (human)): 90.3%
- residual activity (MINK1 (human)): 84.4%
- residual activity (STK17A (human)): 95.5%
- residual activity (DYRK1A (human)): 102%
- residual activity (PRKACA (human)): 96.6%
- residual activity (NEK7 (human)): 107%
- residual activity (TAOK2 (human)): 90.1%
- residual activity (LYN (human)): 108% and 85.5%
- residual activity (MAPK8 (human)): 74.5%
- residual activity (SRPK2 (human)): 105%
- residual activity (SRMS (human)): 96.7%
- residual activity (NTRK2 (human)): 73.4%
- residual activity (PRKCB1 (human)): 99.4%
- residual activity (ACVR1 (human)): 86.9%
- residual activity (IRAK4 (human)): 163%
- residual activity (GSK3A (human)): 55.8%
- residual activity (STK24 (human)): 87.3%
- residual activity (ROS1 (human)): 37.5%
- residual activity [2]: 97.7%
- residual activity (FGR (human)): 57.1%
- residual activity (MAP4K2 (human)): 65.1%
- residual activity (DAPK2 (human)): 101%
- residual activity (CHEK1 (human)): 93.1%
- residual activity (CSNK1G2 (human)): 92.5%
